# Experimental data as given in patent US20250333424A1, “ANTIVIRAL COMPOUNDS” (Gilead Sciences, Inc., priority 2024, published 2025).
# System: monocytic THP1 cells infected with HIV VSV-G pseudotyped GFP-NEF reporter virus
# Assay: cells
# Type: cell-based
# Conditions: Human immunodeficiency virus 1, THP-1, 24 h
row,SMILES,EC50 [nM]
1,"Cc1cc(/C=C/C#N)cc(C)c1Oc1nc(NC23CC(C#N)(C2)C3)nc2c1C(C)N(CC#N)C2=O (centres unmarked) [Compound 315, (E)-3-((6-(cyanomethyl)-4-(4-(2-cyanovinyl)-2,6-dimethylphenoxy)-5-methyl-7-oxo-6,7-dihydro-5H-pyrrolo[3,4-d]pyrimidin-2-yl)amino)bicyclo[1.1.1]pentane-1-carbonitrile]",188
2,"Cc1cc(/C=C/C#N)cc(C)c1Oc1nc(NC23CC(C#N)(C2)C3)nc2c1nc1n2CC2(CC2)CO1 [Compound 274, (E)-3-((4′-(4-(2-cyanovinyl)-2,6-dimethylphenoxy)-7′H,9′H-spiro[cyclopropane-1,8′-[1,3]oxazino[3,2-e]purin]-2′-yl)amino)bicyclo[1.1.1]pentane-1-carbonitrile]",111
3,"Cc1cc(/C=C/C#N)cc(C)c1Oc1nc(NC23CC(C#N)(C2)C3)nc2c1nc1n2CCCO1 (single isomer, unassigned) [Compound 183, (E)-3-((4-(4-(2-cyanovinyl)-2,6-dimethylphenoxy)-8,9-dihydro-7H-[1,3]oxazino[3,2-e]purin-2-yl)amino)bicyclo[1.1.1]pentane-1-carbonitrile]",80
4,"Cc1cc(/C=C/C#N)cc(C)c1Oc1nc(NC23CC(C#N)(C2)C3)nc2c1[C@@H](C)NC2=O [Compound 137, 3-[[(5R)-4-[4-[(E)-2-cyanovinyl]-2,6-dimethyl-phenoxy]-5-methyl-7-oxo-5,6-dihydropyrrolo[3,4-d]pyrimidin-2-yl]amino]bicyclo[1.1.1]pentane-1-carbonitrile]",6.9
5,"Cc1cc(/C=C/C#N)cc(C)c1Oc1nc(NC23CC(C#N)(C2)C3)nc2nn(C3CCOCC3)cc12 [Compound 127, 3-[[4-[4-[(E)-2-cyanovinyl]-2,6-dimethyl-phenoxy]-2-tetrahydropyran-4-yl-pyrazolo[3,4-d]pyrimidin-6-yl]amino]bicyclo[11.1.1]pentane-1-carbonitrile]",149
6,"Cc1cc(/C=C/C#N)cc(C)c1Oc1nc(NC23CC(C#N)(C2)C3)nc2c1C(C)N(c1cnn(C3CCC3)c1)C2=O (centres unmarked) [Example 227, (E)-3-((4-(4-(2-cyanovinyl)-2,6-dimethylphenoxy)-6-(1-cyclobutyl-1H-pyrazol-4-yl)-5-methyl-7-oxo-6,7-dihydro-5H-pyrrolo[3,4-d]pyrimidin-2-yl)amino)bicyclo[1.1.1]pentane-1-carbonitrile]",115
7,"Cc1cc(/C=C/C#N)cc(C)c1Oc1nc(NC23CC(C#N)(C2)C3)nc2c1C(C)N(c1cnn(C)c1C)C2=O (centres unmarked) [Example 221, (E)-3-((4-(4-(2-cyanovinyl)-2,6-dimethylphenoxy)-6-(1,5-dimethyl-1H-pyrazol-4-yl)-5-methyl-7-oxo-6,7-dihydro-5H-pyrrolo[3,4-d]pyrimidin-2-yl)amino)bicyclo[1.1.1]pentane-1-carbonitrile]",72.9
8,"COC(F)(F)C1NC(=O)c2nc(NC34CC(C#N)(C3)C4)nc(Oc3c(C)cc(/C=C/C#N)cc3C)c21 (centres unmarked) [Example 255, (E)-3-((4-2-((2-cyanovinyl)-2,6-dimethylphenoxy)-5-(difluoro(methoxy)methyl)-7-oxo-6,7-dihydro-5H-pyrrolo[3,4-d]pyrimidin-2-yl)amino)bicyclo[1.1.1]pentane-1-carbonitrile]",52.5
9,"Cc1cc(/C=C/C#N)cc(C)c1Oc1nc(NC23CC(C#N)(C2)C3)nc2c1C(C)N(Cc1nccn1C)C2=O (centres unmarked) [Example 213, (E)-3-((4-(4-(2-cyanovinyl)-2,6-dimethylphenoxy)-5-methyl-6-((1-methyl-1H-imidazol-2-yl)methyl)-7-oxo-6,7-dihydro-5H-pyrrolo[3,4-d]pyrimidin-2-yl)amino)bicyclo[1.1.1]pentane-1-carbonitrile]",43.9
10,"Cc1cc(/C=C/C#N)cc(C)c1Oc1nc(NC23CC(C#N)(C2)C3)nc2c1C(O)(C(F)F)NC2=O (centres unmarked) [Example 229, (E)-3-((4-(4-(2-cyanovinyl)-2,6-dimethylphenoxy)-5-(difluoromethyl)-5-hydroxy-7-oxo-6,7-dihydro-5H-pyrrolo[3,4-d]pyrimidin-2-yl)amino)bicyclo[1.1.1]pentane-1-carbonitrile]",123
11,"Cc1cc(/C=C/C#N)cc(C)c1Oc1nc(NC23CC(C#N)(C2)C3)nc2[nH]c(=O)n(C)c12 [Compound 24, (E)-3-((6-(4-(2-cyanovinyl)-2,6-dimethylphenoxy)-7-methyl-8-oxo-8,9-dihydro-7H-purin-2-yl)amino)bicyclo[1.1.1]pentane-1-carbonitrile]",32
12,"COCCn1cc2c(Oc3c(C)cc(/C=C/C#N)cc3C)nc(NC34CC(C#N)(C3)C4)nc2n1 [Compound 123, 3-[[4-[4-[(E)-2-cyanovinyl]-2,6-dimethyl-phenoxy]-2-(2-methoxyethyl)pyrazolo[3,4-d]pyrimidin-6-yl]amino]bicyclo[1.1.1]pentane-1-carbonitrile]",59.8
13,"Cc1cc(/C=C/C#N)cc(C)c1Oc1nc(NC23CC(C#N)(C2)C3)nc2nc(-c3ccn(C)n3)[nH]c12 [Compound 65, (E)-3-((6-(4-(2-cyanovinyl)-2,6-dimethylphenoxy)-8-(1-methyl-1H-pyrazol-3-yl)-7H-purin-2-yl)amino)bicyclo[1.1.1]pentane-1-carbonitrile]",132
14,"Cc1cc(/C=C/C#N)cc(C)c1Oc1nc(NC23CC(C#N)(C2)C3)nc2nc3n(c12)C[C@H](C)CO3 [Compound 185, (S,E)-3-((4-(4-(2-cyanovinyl)-2,6-dimethylphenoxy)-7-methyl-7,8-dihydro-6H-[1,3]oxazino[2,3-f]purin-2-yl)amino)bicyclo[1.1.1]pentane-1-carbonitrile]",22.3
15,"CNC(=O)Cn1nc(C)c2c(Oc3c(C)cc(/C=C/C#N)cc3C)nc(NC34CC(C#N)(C3)C4)nc21 [Compound 99, (E)-2-(6-((3-cyanobicyclo[1.1.1]pentan-1-yl)amino)-4-(4-(2-cyanovinyl)-2,6-dimethylphenoxy)-3-methyl-1H-pyrazolo[3,4-d]pyrimidin-1-yl)-N-methylacetamide]",37.1
16,"Cc1cc(/C=C/C#N)cc(C)c1Oc1nc(NC23CC(C#N)(C2)C3)nc2c1C(C)N(CCc1cn(C)cn1)C2=O (centres unmarked) [Example 209, (E)-3-((4-(4-(2-cyanovinyl)-2,6-dimethylphenoxy)-5-methyl-6-(2-(1-methyl-1H-imidazol-4-yl)ethyl)-7-oxo-6,7-dihydro-5H-pyrrolo[3,4-d]pyrimidin-2-yl)amino)bicyclo[1.1.1]pentane-1-carbonitrile]",57.7
17,"Cc1cc(/C=C/C#N)cc(C)c1Oc1nc(NC23CC(C#N)(C2)C3)nc2c1C1(C)OCC(C(F)(F)F)CN1C2=O (centres unmarked) [Example 253, (E)-3-((4-(4-(2-cyanovinyl)-2,6-dimethylphenoxy)-4b-methyl-10-oxo-7-(trifluoromethyl)-4b,7,8,10-tetrahydro-6H-pyrimido[5′,4′:3,4]pyrrolo[2,1-b][1,3]oxazin-2-yl)amino)bicyclo[1.1.1]pentane-1-carbonitrile]",253
18,"COc1ccc(CN2C(=O)C(C)(C)c3c(Oc4c(C)cc(/C=C/C#N)cc4C)nc(NC45CC(C#N)(C4)C5)nc32)cc1 [Compound 146, (E)-3-((4-(4-(2-cyanovinyl)-2,6-dimethylphenoxy)-7-(4-methoxybenzyl)-5,5-dimethyl-6-oxo-6,7-dihydro-5H-pyrrolo[2,3-d]pyrimidin-2-yl)amino)bicyclo[1.1.1]pentane-1-carbonitrile]",35.4
19,"Cc1cc(/C=C/C#N)cc(C)c1Oc1nc(NC23CC(C#N)(C2)C3)nc2c1[C@]1(C)O[C@@H]3CC[C@@H]3N1C2=O (single isomer, unassigned) [Compound 284]",34.9
20,"Cc1cc(/C=C/C#N)cc(C)c1Oc1nc(NC23CC(C#N)(C2)C3)nc2c1C1(C)OCC(C)(C)CN1C2=O (centres unmarked) [Compound 197, (E)-3-((4-(4-(2-cyanovinyl)-2,6-dimethylphenoxy)-4b,7,7-trimethyl-10-oxo-4b,7,8,10-tetrahydro-6H-pyrimido[5′,4′:3,4]pyrrolo[2,1-b][1,3]oxazin-2-yl)amino)bicyclo[1.1.1]pentane-1-carbonitrile]",97.3
21,"Cc1cc(/C=C/C#N)cc(C)c1Oc1nc(NC23CC(C#N)(C2)C3)nc2[nH]c(=O)n(C(F)F)c12 [Compound 190, (E)-3-((6-(4-(2-cyanovinyl)-2,6-dimethylphenoxy)-7-(difluoromethyl)-8-oxo-8,9-dihydro-7H-purin-2-yl)amino)bicyclo[1.1.1]pentane-1-carbonitrile]",329
22,"Cc1cc(/C=C/C#N)cc(C)c1Oc1nc(NC23CC(C#N)(C2)C3)nc2c1C(C)N(C1CCC1)C2=O (centres unmarked) [Example 216, (E)-3-((4-(4-(2-cyanovinyl)-2,6-dimethylphenoxy)-6-cyclobutyl-5-methyl-7-oxo-6,7-dihydro-5H-pyrrolo[3,4-d]pyrimidin-2-yl)amino)bicyclo[1.1.1]pentane-1-carbonitrile]",77.8
23,"Cc1cc(/C=C/C#N)cc(C)c1Cc1nc(NC23CC(C#N)(C2)C3)nc2nn(C)cc12 [Compound 277, (E)-3-((4-(4-(2-cyanovinyl)-2,6-dimethylbenzyl)-2-methyl-2H-pyrazolo[3,4-d]pyrimidin-6-yl)amino)bicyclo[1.1.1]pentane-1-carbonitrile]",49.9
24,"Cc1cc(/C=C/C#N)cc(C)c1Oc1nc(NC23CC(C#N)(C2)C3)nc2c1C(OCC(F)F)NC2=O (centres unmarked) [Compound 289, (E)-3-((4-(4-(2-cyanovinyl)-2,6-dimethylphenoxy)-5-(2,2-difluoroethoxy)-7-oxo-6,7-dihydro-5H-pyrrolo[3,4-d]pyrimidin-2-yl)amino)bicyclo[1.1.1]pentane-1-carbonitrile]",52.9
25,"Cc1cc(/C=C/C#N)cc(C)c1Oc1nc(NC23CC(C#N)(C2)C3)nc2c1C(C)N(c1cnn(C(C)C)c1)C2=O (centres unmarked) [Example 226, (E)-3-((4-(4-(2-cyanovinyl)-2,6-dimethylphenoxy)-6-(1-isopropyl-1H-pyrazol-4-yl)-5-methyl-7-oxo-6,7-dihydro-5H-pyrrolo[3,4-d]pyrimidin-2-yl)amino)bicyclo[1.1.1]pentane-1-carbonitrile]",84.4
26,"Cc1cc(/C=C/C#N)cc(C)c1Oc1nc(NC23CC(C#N)(C2)C3)nc2nc3n(c12)CCC3 [Compound 196, (E)-3-((4-(4-(2-cyanovinyl)-2,6-dimethylphenoxy)-7,8-dihydro-6H-pyrrolo[2,1-f]purin-2-yl)amino)bicyclo[1.1.1]pentane-1-carbonitrile]",24.6
